Each structure is given as a SMILES string.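 All cell lines were grown in 96-well plates and treated with compound for 48 hours. Definition used: TGI = concentration required for complete inhibition of growth.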

Among the test systems are OVCAR-8 ovarian; CCRF-CEM leukemia; DLD-1 colon; M14 melanoma; SNB-75 CNS; HCC-2998 colon; CAKI-1 renal; NCI-H460 lung; 786-0 renal; NCI-H522 lung.
What all share (experiment): growth of human tumour cells (NCI), 48 h

Take `N#C/C1=C(\N)CCSSSC1`: the TGI in the assay with OVCAR-8 ovarian was 43.2 µM; in the assay with CCRF-CEM leukemia, > 100 µM; in the assay with DLD-1 colon, > 100 µM; in the assay with M14 melanoma, 95.9 µM; in the assay with SNB-75 CNS, > 100 µM; with HCC-2998 colon it was > 100 µM. Besides, the TGI is > 100 µM in the assay on CAKI-1 renal, 51.2 µM in the assay with NCI-H460 lung, > 100 µM with 786-0 renal and 45.6 µM in the assay on NCI-H522 lung.
For `O=c1ccn([C@H]2CSC[C@@H](CO)C2)c(=O)[nH]1`, the TGI with OVCAR-8 ovarian, in the assay on CCRF-CEM leukemia, with DLD-1 colon, in the assay with M14 melanoma, with SNB-75 CNS and in the assay with HCC-2998 colon was > 100 µM throughout. Besides, the TGI in the assay with CAKI-1 renal, in the assay on NCI-H460 lung, with 786-0 renal and with NCI-H522 lung was > 100 µM each time.
Take `CC12CP(=O)(c3ccccc3)CC1C2(Cl)Cl` (stereo not given): the TGI with OVCAR-8 ovarian, in the assay with CCRF-CEM leukemia, in the assay with DLD-1 colon, in the assay on M14 melanoma, in the assay with SNB-75 CNS and in the assay on HCC-2998 colon was > 100 µM each time. The TGI in the assay on NCI-H460 lung, with 786-0 renal and in the assay with NCI-H522 lung was > 100 µM in each case.
Consider `COc1cccc(C2=NC(C(C)C)CO2)c1` (stereo not given), for which the TGI with OVCAR-8 ovarian, in the assay on CCRF-CEM leukemia, with DLD-1 colon, with M14 melanoma, with SNB-75 CNS and with HCC-2998 colon was > 100 µM in each case. The TGI in the assay on CAKI-1 renal, in the assay on NCI-H460 lung, in the assay on 786-0 renal and with NCI-H522 lung was > 100 µM throughout.
Consider `CCC(C)COC(=O)c1ccc(N=Cc2ccc(C=Nc3ccc(C(=O)OCC(C)CC)cc3)cc2)cc1` (stereo not given), for which the TGI with OVCAR-8 ovarian, with CCRF-CEM leukemia, in the assay with DLD-1 colon, in the assay with M14 melanoma, with SNB-75 CNS and with HCC-2998 colon was > 100 µM in each case. For the same molecule, the TGI with CAKI-1 renal, in the assay with NCI-H460 lung, with 786-0 renal and in the assay on NCI-H522 lung was > 100 µM throughout.
With `Cc1[nH]c2ccccc2c1C(=O)/C=C/c1ccccc1O`, the TGI in the assay with OVCAR-8 ovarian, in the assay on CCRF-CEM leukemia, in the assay with DLD-1 colon, in the assay on M14 melanoma, in the assay with SNB-75 CNS and in the assay with HCC-2998 colon was > 100 µM each time. Further, the TGI in the assay with CAKI-1 renal, in the assay with NCI-H460 lung, in the assay on 786-0 renal and in the assay on NCI-H522 lung was > 100 µM in each case.
In the case of `O=C(Nc1nc(=S)c2c(ncn2CCOC(=O)c2ccccc2)[nH]1)c1ccccc1`, the TGI in the assay with OVCAR-8 ovarian is > 100 µM; in the assay on CCRF-CEM leukemia it was > 100 µM; with DLD-1 colon, > 100 µM; in the assay with M14 melanoma, > 100 µM; with SNB-75 CNS, 47.5 µM; in the assay on HCC-2998 colon, > 100 µM. Further, the TGI is > 100 µM with CAKI-1 renal, > 100 µM in the assay with NCI-H460 lung, > 100 µM with 786-0 renal and 68.1 µM in the assay with NCI-H522 lung.
As to `Cc1ccccc1N1C(=O)C2C=CC(n3[nH]c(=O)n(Cc4ccccc4)c3=O)CC2C1=O` (stereo not given), the TGI in the assay on OVCAR-8 ovarian, in the assay with CCRF-CEM leukemia, in the assay on DLD-1 colon, in the assay with M14 melanoma, in the assay with SNB-75 CNS and in the assay with HCC-2998 colon was > 100 µM in each case. In addition, the TGI with CAKI-1 renal, with NCI-H460 lung, in the assay with 786-0 renal and in the assay with NCI-H522 lung was > 100 µM in each case.
In the case of `C1CN2CCN3CCN4CCN1[P+]243`, the TGI with OVCAR-8 ovarian, with CCRF-CEM leukemia, in the assay on DLD-1 colon, in the assay on M14 melanoma, with SNB-75 CNS and in the assay on HCC-2998 colon was > 100 µM in each case. Besides, the TGI in the assay on NCI-H460 lung, with 786-0 renal and in the assay with NCI-H522 lung was > 100 µM each time.
For the molecule `COc1cc2c(c(OC)c1OC)-c1ccc(SC)c(=O)cc1C(NC=O)CC2` (stereo not given), the TGI with OVCAR-8 ovarian was > 68.5 µM; in the assay on CCRF-CEM leukemia it was > 74.8 µM; in the assay on DLD-1 colon it was > 100 µM; in the assay with M14 melanoma, > 21.5 µM; in the assay on SNB-75 CNS, > 21.5 µM; with HCC-2998 colon, > 100 µM. For the same molecule, the TGI with CAKI-1 renal was > 83 µM; in the assay on 786-0 renal, > 100 µM; in the assay on NCI-H522 lung, < 0.01 µM.
In the case of `O=C(/C=C/c1cccc2ccccc12)c1ccccc1Cl`, the TGI in the assay with OVCAR-8 ovarian is 26.7 µM; in the assay with CCRF-CEM leukemia it was 17.2 µM; with DLD-1 colon, 24 µM; in the assay on M14 melanoma, 29.3 µM; in the assay on SNB-75 CNS, 30.5 µM; with HCC-2998 colon, 28.4 µM. Also, the TGI worked out at 27.9 µM in the assay on CAKI-1 renal, 29.2 µM in the assay on NCI-H460 lung, 27.2 µM with 786-0 renal and 27.5 µM with NCI-H522 lung.
Regarding `CCOc1ccc(NC(=O)CC#N)cc1`, the TGI in the assay with OVCAR-8 ovarian, in the assay on CCRF-CEM leukemia, in the assay on DLD-1 colon, in the assay with M14 melanoma, with SNB-75 CNS and in the assay on HCC-2998 colon was > 100 µM each time. In addition, the TGI in the assay on CAKI-1 renal, with NCI-H460 lung, in the assay with 786-0 renal and with NCI-H522 lung was > 100 µM each time.
In the case of `Cc1cc(Cl)ccc1NC(=O)C(=O)Cc1nc2ccccc2o1`, the TGI with OVCAR-8 ovarian, with CCRF-CEM leukemia, in the assay on DLD-1 colon, in the assay on M14 melanoma, with SNB-75 CNS and in the assay with HCC-2998 colon was > 100 µM each time. In addition, the TGI in the assay on CAKI-1 renal, in the assay with NCI-H460 lung, in the assay with 786-0 renal and with NCI-H522 lung was > 100 µM throughout.
As for `O=C(CCc1n[nH]c(=S)o1)Nc1ccccc1C(F)(F)F`, the TGI in the assay on OVCAR-8 ovarian, in the assay with CCRF-CEM leukemia, in the assay on DLD-1 colon, in the assay on M14 melanoma, with SNB-75 CNS and in the assay with HCC-2998 colon was > 100 µM in each case. The TGI with CAKI-1 renal, with NCI-H460 lung, in the assay with 786-0 renal and in the assay on NCI-H522 lung was > 100 µM each time.
With `Cc1ccc(/C=C/C(=O)c2sc(-c3nc(C)c(C(=O)/C=C/c4ccc(C)cc4)s3)nc2C)cc1`, the TGI with OVCAR-8 ovarian, with CCRF-CEM leukemia, in the assay with DLD-1 colon, with SNB-75 CNS, in the assay with HCC-2998 colon and in the assay on CAKI-1 renal was > 100 µM throughout. In addition, the TGI in the assay with NCI-H460 lung, with 786-0 renal and in the assay with NCI-H522 lung was > 100 µM throughout.
Regarding `CN=C1CC2c3cc(OC)c(OC)cc3CCN2C2=C1C(=O)CC(C)(C)C2` (stereo not given), the TGI in the assay with OVCAR-8 ovarian, in the assay with CCRF-CEM leukemia, in the assay with DLD-1 colon, in the assay on SNB-75 CNS, in the assay with HCC-2998 colon and with CAKI-1 renal was > 100 µM each time. Besides, the TGI in the assay on NCI-H460 lung, with 786-0 renal and in the assay on NCI-H522 lung was > 100 µM in each case.
For `CN1CCOC(c2ccccc2)O1` (stereo not given), the TGI in the assay on OVCAR-8 ovarian, in the assay with CCRF-CEM leukemia, with DLD-1 colon, in the assay on M14 melanoma, with SNB-75 CNS and in the assay on HCC-2998 colon was > 100 µM each time. The TGI with CAKI-1 renal, in the assay on NCI-H460 lung, in the assay with 786-0 renal and in the assay with NCI-H522 lung was > 100 µM throughout.

These data come from PubChem BioAssay (NCI).
